The subject of test [1] is Plasmodium falciparum. In words: Percent parasitemia after 0.75 mg/kg dose. It is filed as functional, K1.
In test [2] the test system is Plasmodium falciparum. In words: Percent parasitaemia after 10 mg/kg oral dose. It is filed as functional, K1.
The test system of test [3] is Plasmodium falciparum. Kind of test: Percent inhibition of Plasmodium falciparum FCM29 after 10 mg/kg oral dose. Format: functional.
For test [4], the system named is Plasmodium falciparum. Kind of test: Percent inhibition of Plasmodium falciparum FCM29 after 0.75 mg/kg subcutaneous dose. Format: functional. To be noted: sc.
Test [5] relates to Plasmodium falciparum. Kind of test: Percent parasitemia after 5 mg/kg peroral dose. Format: functional, organism-based. Also noted: dose 5 mg/kg. The note with it: K1, at 5 mg/kg.
Test [6] has as its system Plasmodium falciparum. Kind of test: Percent inhibition of Plasmodium falciparum FCM29 after 5 mg/kg oral dose. It is filed as functional, organism-based. Also on record: dose 5 mg/kg. The note with it: K1, at 5 mg/kg.

By inhibition in vivo is commonly meant the change of the read-out against control, counted positive when it falls. Lower therefore signals a response near the control. Broadly, the inhibition is the drop in the measured response relative to a control, in per cent. A higher inhibition goes with strong suppression.

As for `CCN(CC)CCCC(C)Nc1ccnc2cc(Cl)ccc12` (stereo not drawn) [CHLOROQUINE], the Parasitemia is recorded as 32.2% in test [1] and 0.1% in test [2]. In test [3], this compound came in with an inhibition in vivo at 10 mg/kg of 99.8%. This compound also gave an inhibition in vivo at 0.75 mg/kg in test [4] of 17.2%.

As for “Ferrocenoyl-strychnobrasiline derivative”, the Parasitemia was determined as 36.1% in test [5] and 38.4% in test [2] (K1, at 10 mg/kg). The inhibition in test [6] worked out at 7.2%; in test [3] (at 10 mg/kg) it was 1.3%.

(Values after ChEMBL document CHEMBL1141970, “Synthesis and chloroquine-enhancing activity of Na-deacetyl-ferrocenoyl-strychnobrasiline” (2005).)
